Calls of active or inactive are those of the source. The rule behind the calls is not given here.
Experiments:
RAW264.7 [1] = test: Inhibition of RANKL-induced osteoclast differentiation in mouse RAW264.7 cells assessed as decrease in number of TRAP-positive multinucleated cells after 5 days by microscopy; format: functional, cell-based
Mus musculus [2] = test: Anti-osteoporotic activity in Balb/c mouse assessed as decrease in OVX-induced trabecular pattern factor in femur at 25 to 100 mg/kg, ip administered for 4 weeks daily by microcomputed tomography; format: functional, organism-based
RAW264.7 [3] = test: Inhibition of RANKL-induced osteoclast differentiation in mouse RAW264.7 cells harboring AMPKalpha1 siRNA assessed as decrease in number of TRAP-positive multinucleated cells after 5 days by microscopy; format: functional, cell-based
RAW264.7 [4] = test: Inhibition of RANKL-induced osteoclast differentiation in mouse RAW264.7 cells assessed as decrease in TRAP mRNA level at 20 uM after 24 hrs in presence of ERalpha antagonist MPP by qRT-PCR method; format: functional, cell-based
Mus musculus [5] = test: Anti-osteoporotic activity in Balb/c mouse assessed as inhibition of OVX-induced NFATc1 mRNA expression level in bone marrow at 25 to 100 mg/kg, ip administered for 4 weeks daily by qRT-PCR method; format: functional, organism-based
[6] = biological target: T1, MAP kinase p38 (Mus musculus) (UniProt P47811+O08911+Q9WUI1+Q9Z1B7); test: Inhibition of p38 MAPK signaling pathway in mouse RAW264.7 cells assessed as reduction in RANKL-induced ERK phosphorylation at 10 to 40 uM after 30 mins by Western blot method; format: cell-based
[7] = biological target: T2, Estrogen receptor (Mus musculus) (UniProt P19785); test: Induction of estrogen receptor-mediated AMPKalpha1 activation in mouse RAW264.7 cells at 20 uM in presence of estrogen receptor antagonist fulvestrant; format: cell-based
T2 sequence (whole entry): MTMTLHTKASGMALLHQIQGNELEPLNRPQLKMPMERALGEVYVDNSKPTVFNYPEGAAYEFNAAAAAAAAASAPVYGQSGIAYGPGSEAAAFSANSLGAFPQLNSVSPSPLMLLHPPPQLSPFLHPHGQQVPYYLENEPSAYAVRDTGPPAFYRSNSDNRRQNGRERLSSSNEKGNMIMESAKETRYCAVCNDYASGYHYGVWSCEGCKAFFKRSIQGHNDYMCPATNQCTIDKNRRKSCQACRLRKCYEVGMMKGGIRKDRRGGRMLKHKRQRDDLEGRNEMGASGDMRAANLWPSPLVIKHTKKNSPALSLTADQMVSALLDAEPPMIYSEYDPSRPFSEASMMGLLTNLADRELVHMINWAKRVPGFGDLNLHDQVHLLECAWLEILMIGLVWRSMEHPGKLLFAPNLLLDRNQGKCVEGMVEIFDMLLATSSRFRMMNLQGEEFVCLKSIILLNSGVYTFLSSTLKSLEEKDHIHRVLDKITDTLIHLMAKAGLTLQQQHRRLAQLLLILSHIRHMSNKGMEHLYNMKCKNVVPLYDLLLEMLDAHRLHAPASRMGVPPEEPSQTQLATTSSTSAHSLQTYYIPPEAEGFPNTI

RAW264.7 [8] = test: Inhibition of NF-kappaB/p38 MAPK signaling pathway in mouse RAW264.7 cells assessed as reduction in RANKL-induced TRAP mRNA level after 24 hrs by qRT-PCR method; format: cell-based
[9] = biological target: 5'-AMP-activated protein kinase catalytic subunit alpha-1 (Mus musculus) (UniProt Q5EG47); test: Activation of AMPKalpha1 in mouse RAW264.7 cells assessed as increase in AMPK phosphorylation at 10 to 40 uM after 24 hrs by Western blot method; format: cell-based
Sequence of 5'-AMP-activated protein kinase catalytic subunit alpha-1 (Mus musculus) (Q5EG47 whole entry): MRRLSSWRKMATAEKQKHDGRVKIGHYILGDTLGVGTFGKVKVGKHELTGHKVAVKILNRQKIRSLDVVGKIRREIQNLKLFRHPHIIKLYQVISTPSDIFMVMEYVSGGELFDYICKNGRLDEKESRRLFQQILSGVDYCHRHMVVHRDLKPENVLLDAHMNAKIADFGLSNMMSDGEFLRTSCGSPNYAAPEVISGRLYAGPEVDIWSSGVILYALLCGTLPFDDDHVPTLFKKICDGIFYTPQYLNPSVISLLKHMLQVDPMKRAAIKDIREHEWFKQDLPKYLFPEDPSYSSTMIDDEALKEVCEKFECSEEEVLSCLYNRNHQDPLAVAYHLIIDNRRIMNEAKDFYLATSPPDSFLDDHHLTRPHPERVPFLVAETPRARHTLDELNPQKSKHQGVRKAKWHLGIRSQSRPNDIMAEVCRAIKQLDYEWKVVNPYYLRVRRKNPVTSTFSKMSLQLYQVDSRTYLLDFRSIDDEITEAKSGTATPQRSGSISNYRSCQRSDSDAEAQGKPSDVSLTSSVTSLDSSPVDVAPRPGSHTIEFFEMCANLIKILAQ

RAW264.7 [10] = test: Inhibition of NF-kappaB/p38 MAPK signaling pathway in mouse RAW264.7 cells assessed as reduction in RANKL-induced MMP-9 mRNA level after 24 hrs by qRT-PCR method; format: cell-based
RAW264.7 [11] = test: Inhibition of RANKL-induced osteoclast differentiation in mouse RAW264.7 cells harboring AMPKalpha1 siRNA assessed as decrease in TRAP mRNA level at 20 uM after 24 hrs by qRT-PCR method; format: functional, cell-based
RAW264.7 [12] = test: Inhibition of RANKL-induced osteoclast differentiation in mouse RAW264.7 cells assessed as TRAP activity after 5 days in presence of estrogen receptor antagonist fulvestrant; format: functional, cell-based
[13] = biological target: T1, MAP kinase p38 (Mus musculus); test: Inhibition of p38 MAPK signaling pathway in mouse RAW264.7 cells assessed as reduction in RANKL-induced JNK phosphorylation at 10 to 40 uM after 30 mins by Western blot method; format: cell-based
RAW264.7 [14] = test: Inhibition of RANKL-induced osteoclast differentiation in mouse RAW264.7 cells harboring ERalpha siRNA assessed as decrease in NFATc1 mRNA level at 20 uM after 24 hrs by qRT-PCR method; format: functional, cell-based
Mus musculus [15] = test: Anti-osteoporotic activity in Balb/c mouse assessed as inhibition of OVX-mediated decrease in trabecular thickness in femur at 25 to 100 mg/kg, ip administered for 4 weeks daily by microcomputed tomography; format: functional, organism-based
RAW264.7 [16] = test: Inhibition of RANKL-induced osteoclast differentiation in mouse RAW264.7 cells harboring ERalpha siRNA assessed as decrease in number of TRAP-positive multinucleated cells at 20 uM after 5 days by microscopy; format: functional, cell-based
RAW264.7 [17] = test: Inhibition of RANKL-induced osteoclast differentiation in mouse RAW264.7 cells assessed as decrease in size of TRAP-positive multinucleated cells at 20 uM after 5 days in presence of ERbeta antagonist PHTPP by microscopy; format: functional, cell-based
RAW264.7 [18] = test: Inhibition of NF-kappaB signaling pathway in mouse RAW264.7 cells assessed as reduction in RANKL-induced IkappaB phosphorylation at 10 to 40 uM after 30 mins by Western blot method; format: cell-based
RAW264.7 [19] = test: Inhibition of NF-kappaB/p38 MAPK signaling pathway in mouse RAW264.7 cells assessed as reduction in RANKL-induced DC-STAMP mRNA level after 24 hrs by qRT-PCR method; format: cell-based
RAW264.7 [20] = test: Inhibition of NF-kappaB/p38 MAPK signaling pathway in mouse RAW264.7 cells assessed as reduction in RANKL-induced c-Fos protein expression level after 24 hrs by Western blot method; format: cell-based
RAW264.7 [21] = test: Inhibition of RANKL-induced osteoclast differentiation in mouse RAW264.7 cells assessed as TRAP activity after 5 days in presence of CAMKKbeta inhibitor STO609; format: functional, cell-based
RAW264.7 [22] = test: Inhibition of RANKL-induced osteoclast differentiation in mouse RAW264.7 cells assessed as decrease in number of TRAP-positive multinucleated cells at 20 uM after 5 days in presence of ERalpha antagonist MPP by microscopy; format: functional, cell-based
RAW264.7 [23] = test: Inhibition of RANKL-induced osteoclast differentiation in mouse RAW264.7 cells harboring ERbeta siRNA assessed as decrease in c-Fos mRNA level at 20 uM after 24 hrs by qRT-PCR method; format: functional, cell-based
Mus musculus [24] = test: Anti-osteoporotic activity in Balb/c mouse assessed as decrease in OVX-induced structure model index in femur at 25 to 100 mg/kg, ip administered for 4 weeks daily by microcomputed tomography; format: functional, organism-based

For COc1cc(C2Oc3c(OC)cc(/C=C/CO)cc3C2CO)ccc1O (centres undefined), the inhibition (RAW264.7 [1]) was “Dose-dependent effect”, the Activity (Mus musculus [2]) was “Active” and the inhibition (RAW264.7 [3]) was “inactive”. The inhibition (RAW264.7 [4]) was “inactive”, the inhibition (Mus musculus [5]) was “Active” and the inhibition [6] was “inactive”. The Activity [7] was “inactive”, the inhibition (RAW264.7 [8]) was “Dose-dependent effect” and the Activity [9] was “Active”. The inhibition (RAW264.7 [10]) was “Dose-dependent effect”, the inhibition (RAW264.7 [11]) was “inactive” and the inhibition (RAW264.7 [12]) was “inactive”. For the same molecule, the inhibition [13] was “inactive”, the inhibition (RAW264.7 [14]) was “inactive” and the inhibition (Mus musculus [15]) was “Active”. The inhibition (RAW264.7 [16]) was “inactive”, the inhibition (RAW264.7 [17]) was “Active” and the inhibition (RAW264.7 [18]) was “Active”. The inhibition (RAW264.7 [19]) was “Dose-dependent effect”, the inhibition (RAW264.7 [20]) was “Dose-dependent effect” and the inhibition (RAW264.7 [21]) was “Active”. The inhibition (RAW264.7 [22]) was “inactive”, the inhibition (RAW264.7 [23]) was “Active” and the Activity (Mus musculus [24]) was “Active”.

Reference: ChEMBL document CHEMBL4145608, “Dehydrodiconiferyl Alcohol Inhibits Osteoclast Differentiation and Ovariectomy-Induced Bone Loss through Acting as an Estrogen Receptor Agonist” (J Nat Prod, 2018)
